Values of other authors, collected in PMC8549773 (Chemical Science, 2021).

Tested on: GCase
Details: administered to rats

In the case of `OC[C@H]1O[C@@H](F)[C@H](F)[C@@H](O)[C@@H]1O` [2FGlcF, 2-deoxy-2-fluoro-β-D-glucosyl fluoride], the “GCase inactivation in organs” value is listed as “inactivates GCase in all organs, including the brain”.
